According to US8653278B2, “Isoform selective HDAC inhibitors” (Georgetown University, priority 2006, dated 2014):
“Also recorded” adds a separate entry of the source. Read-outs that look alike come from different tables or passages of the source. Blank lines part the entries; values can stand above or below the molecule they belong to.

Experiments:
[1] = test system: human normal fibroblasts (NHP-5); test: growth inhibition of normal cells NHP-5; assay type: cell-based; settings: Fibroblast
Method: (§1) One of characteristics of the HDAC inhibitors relates to their ability to inhibit the growth of transformed cells. The compounds capable of modifying histones in the cell were tested for their biological effects.

HDAC [2] = test system: T1, HDAC; test: in vitro HDAC inhibitory activity, HDAC Fluor-Lys as substrate (BIOMOL); assay type: biochemical; settings: for IC50: read-out: IC50, concentration required to achieve 50% inhibition of HDAC activity
T1 construct: other: HDAC Fluor-Lys substrate; other: at concentrations of 1 μM
Method: The in vitro HDAC inhibitory activity of the synthesized compounds was determined by using HDAC Fluor-Lys as the substrate (BIOMOL). […] SAHA was used as a positive control.

[3] = test system: human normal primary skin fibroblasts (Hs-68); test: growth inhibition of normal cells Hs-68; assay type: cell-based; settings: Hs68
Method: as §1

[4] = test system: prostate cancer (PC-3), breast cancer (MCF-7), cervical cancer (HeLa), squamous carcinoma (SQ-20B); test: antiproliferative activity in cancer cell lines; assay type: cell-based; settings: PC-3, MCF-7, HeLa
Method: as §1

HDAC8 = target: T2, HDAC8 (Homo sapiens, UniProt Q9BY41); test: class I HDAC isoform activity, recombinant protein; assay type: biochemical; settings: after addition of 0.5 μM of the test compound
T2 sequence (Q9BY41 1-377): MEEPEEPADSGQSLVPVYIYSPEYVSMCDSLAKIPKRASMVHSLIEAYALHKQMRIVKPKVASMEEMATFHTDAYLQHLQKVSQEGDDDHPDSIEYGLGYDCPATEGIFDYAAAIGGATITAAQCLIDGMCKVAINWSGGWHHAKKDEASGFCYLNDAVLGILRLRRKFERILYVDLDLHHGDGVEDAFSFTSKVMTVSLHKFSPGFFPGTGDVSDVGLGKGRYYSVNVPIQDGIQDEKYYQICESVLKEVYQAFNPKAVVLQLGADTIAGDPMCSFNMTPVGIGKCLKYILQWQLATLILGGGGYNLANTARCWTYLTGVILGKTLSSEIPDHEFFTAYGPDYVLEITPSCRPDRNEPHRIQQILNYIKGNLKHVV
Text: (§2) FIG. 10 depicts the effect of HDAC inhibitors, including selected compounds of the invention, on Class I HDAC isoform activities. Note that (a) denotes that HeLa nuclear extracts were used for immunoprecipitation (IP) with antibodies against HDAC 1-3; and (b) denotes that recombinant protein was used for HDAC 8. Note: TSA is trichostatin A.
(§3) To test whether the modified CAP region of the HDACIs is able to target specific HDAC isoform enzyme activity, the compounds were examined for class I HDAC isoform inhibitory activities using recombinant HDAC8 and immunoprecipitates of the other HDAC isoforms (HDAC 1, 2, 3) using nuclear extracts from HeLa cells. […] The data shown in FIG. 10 represent the HDAC inhibitory activity remaining after addition of 0.5 μM of the test compounds.

HDAC1 = target: T3, HDAC1 (Homo sapiens, UniProt Q13547); test: class I HDAC isoform activity, immunoprecipitate from HeLa nuclear extracts; assay type: biochemical; settings: 0.5 μM of the test compound
T3 construct: endogenous in cells; host or cells: HeLa nuclear extract, immunoprecipitate
Text: as §2, §3

HDAC3 = target: T4, HDAC3 (Homo sapiens, UniProt O15379); test: as above; assay type: biochemical; settings: after addition of 0.5 μM of the test compound
T4 construct: endogenous in cells; host or cells: HeLa nuclear extract, immunoprecipitate
Text: as §2, §3

HDAC2 = target: T5, HDAC2 (Homo sapiens, UniProt Q92769); test: as above; assay type: biochemical; settings: 0.5 μM of the test compound
T5 construct: endogenous in cells; host or cells: HeLa nuclear extract, immunoprecipitate
Text: as §2, §3

Plasmodium falciparum = settings: human malaria parasite Plasmodium falciparum; cited from earlier work
HDAC 1, 2, 3 and HDAC8 = test: class I HDAC isoform panel, comparison across isoforms; assay type: biochemical; settings: 0.5 μM of the test compound; HDAC 1, 2, 3, 8
Text: as §2, with “8.” for “8. Note: TSA is trichostatin A.”

HDAC [5] = settings: read-out: reported IC50; literature value; cited from earlier work
[6] = test system: mouse model of Huntington's disease; settings: cited from earlier work

T4 sequence (O15379 whole entry): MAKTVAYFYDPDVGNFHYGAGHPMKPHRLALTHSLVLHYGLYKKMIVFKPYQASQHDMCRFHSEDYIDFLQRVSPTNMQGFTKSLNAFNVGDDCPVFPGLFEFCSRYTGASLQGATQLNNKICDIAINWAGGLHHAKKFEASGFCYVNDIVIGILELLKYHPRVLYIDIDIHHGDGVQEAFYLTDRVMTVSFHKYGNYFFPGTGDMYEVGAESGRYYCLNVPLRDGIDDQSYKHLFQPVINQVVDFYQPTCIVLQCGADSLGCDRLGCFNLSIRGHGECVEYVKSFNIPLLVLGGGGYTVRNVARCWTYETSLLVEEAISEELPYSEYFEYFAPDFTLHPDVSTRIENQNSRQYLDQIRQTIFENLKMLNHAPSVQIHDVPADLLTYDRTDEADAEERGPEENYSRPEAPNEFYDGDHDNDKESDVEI
T4 sequence (Q9Y618 whole entry partner): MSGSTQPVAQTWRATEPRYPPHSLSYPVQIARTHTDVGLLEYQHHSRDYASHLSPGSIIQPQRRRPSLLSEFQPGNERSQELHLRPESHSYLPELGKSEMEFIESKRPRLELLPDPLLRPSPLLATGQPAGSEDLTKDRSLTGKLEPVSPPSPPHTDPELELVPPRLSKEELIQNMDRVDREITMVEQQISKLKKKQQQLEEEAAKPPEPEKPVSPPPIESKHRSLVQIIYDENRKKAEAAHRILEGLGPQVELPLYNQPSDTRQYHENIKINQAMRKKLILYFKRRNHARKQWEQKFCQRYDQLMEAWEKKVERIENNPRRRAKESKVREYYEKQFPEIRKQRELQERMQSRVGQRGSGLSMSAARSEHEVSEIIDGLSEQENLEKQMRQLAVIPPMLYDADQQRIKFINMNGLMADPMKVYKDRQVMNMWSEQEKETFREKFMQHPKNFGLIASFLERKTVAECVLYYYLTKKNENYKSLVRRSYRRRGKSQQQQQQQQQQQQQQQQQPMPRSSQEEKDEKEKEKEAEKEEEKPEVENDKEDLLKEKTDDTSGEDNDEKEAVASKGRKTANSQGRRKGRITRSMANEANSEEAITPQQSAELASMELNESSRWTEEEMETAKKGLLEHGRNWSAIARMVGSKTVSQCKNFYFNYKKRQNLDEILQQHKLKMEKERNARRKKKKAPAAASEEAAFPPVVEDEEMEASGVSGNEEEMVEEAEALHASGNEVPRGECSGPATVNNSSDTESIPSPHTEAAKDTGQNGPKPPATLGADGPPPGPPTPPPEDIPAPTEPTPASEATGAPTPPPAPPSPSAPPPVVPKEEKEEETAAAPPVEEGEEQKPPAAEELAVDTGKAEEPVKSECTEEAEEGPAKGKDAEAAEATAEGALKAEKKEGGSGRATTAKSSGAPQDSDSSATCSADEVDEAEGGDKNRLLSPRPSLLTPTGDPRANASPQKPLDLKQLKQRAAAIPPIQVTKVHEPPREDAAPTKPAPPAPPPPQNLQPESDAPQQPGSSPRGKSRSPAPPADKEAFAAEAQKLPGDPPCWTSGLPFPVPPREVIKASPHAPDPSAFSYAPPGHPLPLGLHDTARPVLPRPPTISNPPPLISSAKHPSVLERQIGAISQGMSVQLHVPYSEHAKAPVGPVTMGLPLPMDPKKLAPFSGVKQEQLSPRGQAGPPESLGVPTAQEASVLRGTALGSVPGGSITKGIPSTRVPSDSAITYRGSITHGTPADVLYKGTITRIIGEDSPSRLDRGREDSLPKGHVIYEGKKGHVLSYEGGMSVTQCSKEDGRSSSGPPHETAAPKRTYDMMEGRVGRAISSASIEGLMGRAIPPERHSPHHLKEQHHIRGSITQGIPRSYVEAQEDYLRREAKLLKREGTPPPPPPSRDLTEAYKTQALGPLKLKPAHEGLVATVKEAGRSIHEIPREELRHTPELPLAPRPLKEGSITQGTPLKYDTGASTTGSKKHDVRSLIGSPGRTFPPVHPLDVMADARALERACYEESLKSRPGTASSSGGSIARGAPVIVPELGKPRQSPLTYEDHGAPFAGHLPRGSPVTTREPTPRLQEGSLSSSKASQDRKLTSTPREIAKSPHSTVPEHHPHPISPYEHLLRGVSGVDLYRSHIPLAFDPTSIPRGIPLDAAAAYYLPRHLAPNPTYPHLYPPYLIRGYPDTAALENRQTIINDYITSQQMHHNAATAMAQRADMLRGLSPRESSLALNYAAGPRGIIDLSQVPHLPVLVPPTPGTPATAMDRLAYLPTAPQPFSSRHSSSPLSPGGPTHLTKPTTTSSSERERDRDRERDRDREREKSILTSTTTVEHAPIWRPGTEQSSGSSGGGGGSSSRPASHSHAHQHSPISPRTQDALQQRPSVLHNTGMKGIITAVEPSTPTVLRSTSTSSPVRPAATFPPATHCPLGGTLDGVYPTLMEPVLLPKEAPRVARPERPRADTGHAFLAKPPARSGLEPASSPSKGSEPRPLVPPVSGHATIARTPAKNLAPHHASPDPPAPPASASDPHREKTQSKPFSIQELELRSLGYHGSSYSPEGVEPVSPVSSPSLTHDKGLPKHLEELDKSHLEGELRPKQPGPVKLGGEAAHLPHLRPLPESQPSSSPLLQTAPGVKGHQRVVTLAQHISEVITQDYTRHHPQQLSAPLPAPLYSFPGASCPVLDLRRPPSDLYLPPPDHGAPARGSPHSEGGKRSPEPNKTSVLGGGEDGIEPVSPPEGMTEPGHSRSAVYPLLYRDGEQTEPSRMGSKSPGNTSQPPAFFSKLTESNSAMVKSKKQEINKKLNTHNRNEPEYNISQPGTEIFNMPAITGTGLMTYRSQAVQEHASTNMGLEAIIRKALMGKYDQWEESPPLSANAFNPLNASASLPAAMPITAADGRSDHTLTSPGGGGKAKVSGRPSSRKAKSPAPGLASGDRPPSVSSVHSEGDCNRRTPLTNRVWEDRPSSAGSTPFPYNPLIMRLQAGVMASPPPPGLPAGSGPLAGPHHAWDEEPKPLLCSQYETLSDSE
T3 sequence (Q13547 whole entry, canonical isoform): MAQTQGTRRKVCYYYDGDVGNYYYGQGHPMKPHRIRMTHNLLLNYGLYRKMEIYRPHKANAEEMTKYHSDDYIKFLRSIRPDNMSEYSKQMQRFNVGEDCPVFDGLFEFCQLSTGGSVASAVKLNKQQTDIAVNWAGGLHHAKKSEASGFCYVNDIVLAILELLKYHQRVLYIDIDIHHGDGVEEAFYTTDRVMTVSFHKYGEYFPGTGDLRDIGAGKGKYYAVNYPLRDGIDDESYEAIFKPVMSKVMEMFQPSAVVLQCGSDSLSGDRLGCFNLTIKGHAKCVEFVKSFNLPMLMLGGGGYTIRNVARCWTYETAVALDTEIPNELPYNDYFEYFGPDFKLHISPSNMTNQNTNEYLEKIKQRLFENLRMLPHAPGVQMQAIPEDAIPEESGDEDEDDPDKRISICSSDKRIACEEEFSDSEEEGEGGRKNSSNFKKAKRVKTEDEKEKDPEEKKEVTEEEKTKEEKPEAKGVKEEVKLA
T5 sequence (Q92769 whole entry): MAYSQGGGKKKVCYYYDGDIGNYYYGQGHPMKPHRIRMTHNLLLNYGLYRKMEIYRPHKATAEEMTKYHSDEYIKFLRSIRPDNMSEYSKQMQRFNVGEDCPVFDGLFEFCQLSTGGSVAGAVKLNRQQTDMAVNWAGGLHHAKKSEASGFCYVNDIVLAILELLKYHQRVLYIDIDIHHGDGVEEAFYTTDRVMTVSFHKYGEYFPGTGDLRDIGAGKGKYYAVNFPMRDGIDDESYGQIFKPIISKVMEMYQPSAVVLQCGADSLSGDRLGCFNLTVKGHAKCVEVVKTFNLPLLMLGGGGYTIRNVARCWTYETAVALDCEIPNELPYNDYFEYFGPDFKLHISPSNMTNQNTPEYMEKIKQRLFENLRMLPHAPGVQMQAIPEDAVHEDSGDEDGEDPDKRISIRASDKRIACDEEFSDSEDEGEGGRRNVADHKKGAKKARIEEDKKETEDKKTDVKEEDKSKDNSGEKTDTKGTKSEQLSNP

Molecule: NC(Cc1c[nH]c2ccccc12)C(=O)Nc1ccccc1-c1ccc(NC(=O)CCCCCCC(=O)NO)cc1 (stereo not drawn) [7d, octanedioic acid {2′-[2-amino-3-(1H-indol-3-yl)-propionylamino]-biphenyl-4-yl}-amide hydroxyamide]
IC50 [1]: 100000 nM | IC50 (HDAC [2]): 30 nM

IC50 (HDAC [2]; HDAC Fluor-Lys substrate): 200 nM
Molecule: NCC(=O)Nc1ccccc1-c1ccc(NC(=O)CCCCCCC(=O)NO)cc1 [7a, octanedioic acid [2′-(2-amino-acetylamino)-biphenyl-4-yl]-amide hydroxyamide]
IC50 [1]: > 500000 nM | IC50 [3]: > 500000 nM

Molecule: NC(Cc1ccccc1)C(=O)Nc1ccccc1-c1ccc(NC(=O)CCCCCCC(=O)NO)cc1 (stereo not drawn) [7b, octanedioic acid [2′-(2-amino-3-phenyl-propionylamino)-biphenyl-4-yl]-amide hydroxyamide]
IC50 [1]: 80000 nM | HDAC inhibitory activity (in words) (HDAC [2]): approximately equipotent in their activity to SAHA | IC50 [3]: > 300000 nM | antiproliferative / growth inhibitory activity (in words) [4]: good growth inhibitory activity

remaining activity at 0.5 µM (HDAC8): > 30% | inhibition of HDAC1 activity (in words) (HDAC1): strong tendency to inhibit | remaining activity at 0.5 µM (HDAC3): > 30% | inhibition of HDAC2 activity (in words) (HDAC2): strong tendency to inhibit
Molecule: O=C(CCCCCCC(=O)Nc1nc(-c2cccc([N+](=O)[O-])c2)cs1)NO [compound 19, octanedioic acid hydroxyamide [4-(3-Nitro-phenyl)-thiazol-2-yl]-amide]
antiproliferative / growth inhibitory activity (in words) [4]: submicromolar activity

Molecule: COc1ccc(CCN(C)CCCC(C#N)(c2ccc(OC)c(OC)c2)C(C)C)cc1OC (stereo not drawn) [Verapamil]
reversal of chloroquine resistance (Plasmodium falciparum): reverse chloroquine resistance

Molecule: trichostatin A
class I HDAC isoform inhibitory activity and selectivity (in words) (HDAC 1, 2, 3 and HDAC8): more effective for inhibiting HDACs 1 and 2 | IC50 (HDAC [5]): 12 nM

IC50 (HDAC [2]): 3000 nM
Molecule: NC(Cc1ccccc1)C(=O)Nc1ccccc1-c1ccc(NC(=O)CCCCCNC(=O)CS)cc1 (stereo not drawn) [10b, 6-(2-Mercapto-acetylamino)-hexanoic acid [2′-(2-amino-3-phenyl-propionylamino)-biphenyl-4-yl]-amide]

remaining activity at 0.5 µM (HDAC8): > 30% | IC50 (HDAC [2]; HDAC Fluor-Lys substrate): 8 nM | inhibition of HDAC1 activity (in words) (HDAC1): strong tendency to inhibit | remaining activity at 0.5 µM (HDAC3): > 30% | inhibition of HDAC2 activity (in words) (HDAC2): strong tendency to inhibit
Molecule: Nc1cccc(-c2csc(NC(=O)CCCCCCC(=O)NO)n2)c1 [compound 23, octanedioic acid hydroxyamide [4-(3-amino-phenyl)-thiazol-2-yl]-amide]
antiproliferative / growth inhibitory activity (in words) [4]: submicromolar activity

IC50 (HDAC [2]; HDAC Fluor-Lys substrate): 5 nM
Molecule: CCOC(=O)Nc1cccc(-c2csc(NC(=O)CCCCCCC(=O)NO)n2)c1 [compound 22, {3-[2-(7-hydroxycarbamoyl-heptanoylamino)-thiazol-4-yl]-phenyl}-carbamic acid ethyl ester]
potency relative to trichostatin A (HDAC [2]; IC50 compared with reported IC50 of trichostatin A): approximately two-fold | antiproliferative / growth inhibitory activity (in words) [4]: submicromolar activity; also recorded: impressive antiproliferative activity

Molecule: O=C(CCCCCCC(=O)Nc1ccc(-c2ccccc2NC(=O)C2CCCN2)cc1)NO (stereo not drawn) [7c, octanedioic acid hydroxyamide {2′-[(pyrrolidine-2-carbonyl)-amino]-biphenyl-4-yl}-amide]
HDAC inhibitory activity (in words) (HDAC [2]; HDAC Fluor-Lys substrate): approximately equipotent in their activity to SAHA

Molecule: Nc1ccccc1-c1csc(NC(=O)CCCCCCC(=O)NO)n1 [compound 16, octanedioic acid hydroxyamide [4-(2-amino-phenyl)-thiazol-2-yl]-amide]
HDAC inhibitory activity (in words) (HDAC [2]; HDAC Fluor-Lys substrate): poorly active

Molecule: NC(Cc1ccc(O)cc1)C(=O)Nc1ccccc1-c1ccc(NC(=O)CCCCCNC(=O)CS)cc1 (stereo not drawn) [10e, 6-(2-mercapto-acetylamino)-hexanoic acid {2′-[2-amino-3-(4-hydroxy-phenyl)-propionylamino]-biphenyl-4-yl}-amide]
HDAC inhibitory activity at a fixed concentration (in words) (HDAC [2]; at concentrations of 1 μM): inactive

IC50 (HDAC [2]; HDAC Fluor-Lys substrate): 50 nM
Molecule: NC(Cc1ccc(O)cc1)C(=O)Nc1ccccc1-c1ccc(NC(=O)CCCCCCC(=O)NO)cc1 (stereo not drawn) [7e, octanedioic acid {2′-[2-amino-3-(4-hydroxy-phenyl)-propionylamino]-biphenyl-4-yl}-amide hydroxyamide]

IC50 (HDAC [2]; HDAC Fluor-Lys substrate): 50 nM
Molecule: O=C(CCCCCCC(=O)Nc1nc(-c2ccccc2[N+](=O)[O-])cs1)NO [compound 17, octanedioic acid hydroxyamide [4-(2-nitro-phenyl)-thiazol-2-yl]-amide]

IC50 (HDAC [2]): 7000 nM
Molecule: NCC(=O)Nc1ccccc1-c1ccc(NC(=O)CCCCCNC(=O)CS)cc1 [10a, 6-(2-mercapto-acetylamino)-hexanoic acid [2′-(2-amino-acetylamino)-biphenyl-4-yl]-amide]

Molecule: O=C(CCCCCCC(=O)Nc1ccccc1)NO [SAHA, suberoylanilide hydroxamic acid]
motor impairment ([6]; mouse model of Huntington's disease): improve dramatically the motor impairment | brain penetration ([6]; mouse, in vivo): penetrate into the brain

Molecule: NC(Cc1c[nH]c2ccccc12)C(=O)Nc1ccccc1-c1ccc(NC(=O)CCCCCNC(=O)CS)cc1 (stereo not drawn) [10d, 6-(2-mercapto-acetylamino)-hexanoic acid {2′-[2-amino-3-(1H-indol-3-yl)-propionylamino]-biphenyl-4-yl}-amide]
HDAC inhibitory activity at a fixed concentration (in words) (HDAC [2]): inactive
